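Briefly, cells in 96-well plates were exposed to five compound concentrations for 48 h, and endpoints were estimated by linear interpolation. GI50 is the concentration that inhibits growth by half. TGI denotes the concentration required for complete inhibition of growth.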
Key:
Experiment in all cases: inhibition of tumour cell growth, NCI panel, 48 h
HL-60(TB) leukemia = test system: HL-60(TB) leukemia
K-562 leukemia = test system: K-562 leukemia
CAKI-1 renal = test system: CAKI-1 renal
KM12 colon = test system: KM12 colon
OVCAR-4 ovarian = test system: OVCAR-4 ovarian
UACC-257 melanoma = test system: UACC-257 melanoma
EKVX NSCLC = test system: EKVX NSCLC
UACC-62 melanoma = test system: UACC-62 melanoma
NCI-H23 lung = test system: NCI-H23 lung
SF-295 CNS = test system: SF-295 CNS

Row | SMILES | TGI (HL-60(TB) leukemia) [µM] | TGI (K-562 leukemia) [µM] | TGI (CAKI-1 renal) [µM] | TGI (KM12 colon) [µM] | TGI (OVCAR-4 ovarian) [µM] | TGI (UACC-257 melanoma) [µM] | TGI (EKVX NSCLC) [µM] | TGI (UACC-62 melanoma) [µM] | TGI (NCI-H23 lung) [µM] | TGI (SF-295 CNS) [µM] | GI50 (HL-60(TB) leukemia) [µM] | GI50 (K-562 leukemia) [µM] | GI50 (CAKI-1 renal) [µM] | GI50 (KM12 colon) [µM] | GI50 (OVCAR-4 ovarian) [µM] | GI50 (UACC-257 melanoma) [µM] | GI50 (EKVX NSCLC) [µM] | GI50 (UACC-62 melanoma) [µM] | GI50 (NCI-H23 lung) [µM] | GI50 (SF-295 CNS) [µM]
1 | Cc1cccc(N2C(=O)C3c4[nH]c5ccc(C)cc5c4C4CCC(C(C)(C)C)CC4C3C2=O)c1 (configuration not stated) | 40.3 | > 100 | > 100 | 38 | > 100 | > 100 | 85.6 | > 100 | > 100 | 47.5 |  |  |  |  |  |  |  |  |  | 
2 | CCCCCCCCCCCCCC[n+]1ccc(C)cc1 | 1.19 | 3.73 | 2.66 | 0.802 | 2.71 | 2.48 | 1.42 | 2.57 | 2.51 | 17.8 | 0.338 | 0.309 | 0.933 | 0.281 | 0.523 | 0.763 | 0.296 | 1.08 | 0.504 | 3.25
3 | CCCCOP(C)(=O)C(NC(=O)OCC)(C(F)(F)F)C(F)(F)F (configuration not stated) | > 100 | > 100 | > 100 | > 100 | > 100 | > 100 | > 100 | > 100 | > 100 | > 100 |  |  |  |  |  |  |  |  |  | 
4 | C=C1C(=O)OC2CC(C)C3C4OC4C(O)C3(C)C(O)C12 (configuration not stated) | > 51.6 | 91.6 | 67.9 | 71.1 | 59.7 | 104 | 63.9 | 43.8 | 55.5 | 98 |  |  |  |  |  |  |  |  |  | 
5 | CSc1nc(N)c2c(-c3ccccc3)c3c(nc2n1)CCCC3 | > 100 | > 100 | > 100 | > 100 | > 100 | > 100 | > 100 | > 100 | > 100 | > 100 |  |  |  |  |  |  |  |  |  | 
6 | COc1ccc(-c2c(-c3ccccc3)c(C)nc3nc(SC)nc(SC)c23)cc1OC | 8.49 | 32 | > 100 | > 100 |  | > 100 | > 100 | 39.7 | > 100 | 31.5 |  |  |  |  |  |  |  |  |  | 
7 | Clc1ccc(C[P+](c2ccccc2)(c2ccccc2)c2ccccc2)cc1Cl | 14.9 | > 100 | 11 | 11.3 | 19.5 | 8.32 |  | 9.33 | 10.4 | 22.2 |  |  |  |  |  |  |  |  |  | 
8 | C/C(N=NS(=O)(=O)c1ccc([N+](=O)[O-])cc1)=C1\C=CC=CN1O | > 100 | > 100 | > 100 | > 100 | > 100 | > 100 | > 100 | > 100 | > 100 | > 100 |  |  |  |  |  |  |  |  |  | 
9 | O=C1/C(=C/c2ccc(O)cc2)COc2ccc(O)c(O)c21 | 7.41 | > 100 | 12.9 | 6.04 | 65.9 | > 100 | > 100 | 4.36 | 34.7 | > 100 | 1.93 | 0.649 | 3.02 | 1.99 | 2.85 | 4.5 | 2.91 | 1.99 | 3.97 | 5.36
10 | C/C(=N\O)c1cccc[n+]1Cc1ccccc1 | > 100 | > 100 | > 100 | > 100 | > 100 | > 100 | > 100 | > 100 | > 100 | > 100 |  |  |  |  |  |  |  |  |  | 
11 | CC(C)c1ccccc1SCc1cc(=O)cc(CSc2ccccc2C(C)C)o1 | 82 | > 100 | 49.4 | 32.9 | 46.9 | 51 | 38.4 | 36.2 | > 100 | 67.5 |  |  |  |  |  |  |  |  |  | 
12 | CC12CCC(CC1)C(C)(C)O2 | > 93.9 | 183 | > 61.2 | 118 | 129 | 73.7 | 104 | 69.6 | 121 | 116 |  | 37.9 | 15.7 |  |  |  |  |  |  | 
13 | O=C(O)/C=C/c1c[nH]c(=O)[nH]c1=O | > 500 | > 500 | > 500 | > 500 | > 500 | > 500 | > 500 | > 500 | > 500 | > 232 |  |  |  |  | > 500 |  |  |  |  | > 158

From PubChem BioAssay (NCI)
